Measurements taken from US20110082130A1 (LIGAND PHARMACEUTICALS, INC., priority 2006, published 2011).

target: T1, chimeric human H3 receptor (Homo sapiens, UniProt Q9Y5N1); assay: Chimeric human H3 receptor screening GTP binding assay (inhibition of histamine-stimulated GTP-gamma35S binding, Example 8); assay type: biochemical; conditions: 4 μM of the compound, 1 μM histamine, "†" in Ki of Table II, read-out: percent inhibition of the signal obtained with 1 μM histamine
T1 construct: made in house; host or cells: Sf9 insect cells (baculovirus); P2 membrane preparation
Summary of the method: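 Sf9 membranes co-expressing chimeric human H3 receptor and heterotrimeric G-protein, 35 μg per reaction, incubated 60 min at room temperature with 4 μM compound, 1 μM histamine, 10 μM GDP and […] GTP-gamma35S at pH 7.4. Filter-bound radioactivity counted. Result expressed as percent inhibition of the histamine signal after subtracting non-specific binding (10 μM GTP-gammaS).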

T1 sequence (Q9Y5N1 with tags, fused parts or gaps): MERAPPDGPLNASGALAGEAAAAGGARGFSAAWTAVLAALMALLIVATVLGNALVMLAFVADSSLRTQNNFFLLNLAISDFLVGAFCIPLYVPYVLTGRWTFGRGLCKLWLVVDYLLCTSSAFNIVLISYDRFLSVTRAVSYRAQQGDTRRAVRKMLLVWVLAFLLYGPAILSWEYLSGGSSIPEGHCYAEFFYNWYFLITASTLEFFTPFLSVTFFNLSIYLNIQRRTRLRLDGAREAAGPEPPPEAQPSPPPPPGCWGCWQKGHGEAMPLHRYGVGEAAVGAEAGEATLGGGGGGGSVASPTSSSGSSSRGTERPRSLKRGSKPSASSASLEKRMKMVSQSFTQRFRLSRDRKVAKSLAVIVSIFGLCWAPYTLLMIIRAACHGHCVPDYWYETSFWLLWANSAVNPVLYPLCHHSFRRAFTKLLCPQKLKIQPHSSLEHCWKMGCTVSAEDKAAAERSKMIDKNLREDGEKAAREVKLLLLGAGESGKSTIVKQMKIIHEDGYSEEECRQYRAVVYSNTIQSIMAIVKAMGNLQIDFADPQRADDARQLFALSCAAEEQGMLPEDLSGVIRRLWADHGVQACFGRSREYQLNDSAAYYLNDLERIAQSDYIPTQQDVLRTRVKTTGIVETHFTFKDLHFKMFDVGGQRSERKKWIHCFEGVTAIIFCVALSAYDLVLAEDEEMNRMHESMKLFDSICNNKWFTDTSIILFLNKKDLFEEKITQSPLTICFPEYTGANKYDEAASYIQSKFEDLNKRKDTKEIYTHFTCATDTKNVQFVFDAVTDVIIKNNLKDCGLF

Inhibition at 4 µM, ≥ 90%:
Cc1ccc(-c2ccc3c(c2)CCN(CC(=O)N2CCN(C4CCCC4)CC2)C3)cc1F [Compound 427, 2-[2-(4-cyclopentylpiperazin-1-yl)-2-oxoethyl]-6-(3-fluoro-4-methylphenyl)-1,2,3,4-tetrahydroisoquinoline]
O=C(CN1CCc2cc(-c3cccc4c3oc3ccccc34)ccc2C1)N1CCN(C2CCCCC2)CC1 [Compound 384, 2-[2-(4-cyclohexylpiperazin-1-yl)-2-oxoethyl]-6-dibenzo[b,d]furan-4-yl-1,2,3,4-tetrahydroisoquinoline]
Cc1ccc(-c2ccc3c(c2)CCN(CC(=O)N2CCN(C4CCC4)CC2)C3)cc1F [Compound 426, 2-[2-(4-cyclobutylpiperazin-1-yl)-2-oxoethyl]-6-(3-fluoro-4-methylphenyl)-1,2,3,4-tetrahydroisoquinoline]
CC(C)c1cccc(-c2ccc3c(c2)CCN(CC(=O)N2CCN(C4CCCC4)CC2)C3)c1 [Compound 440, 2-[2-(4-cyclopentylpiperazin-1-yl)-2-oxoethyl]-6-(3-isopropylphenyl)-1,2,3,4-tetrahydroisoquinoline]
O=C(CN1CCc2cc(-c3ccccc3)ccc2C1)N1CCN(C2CCC2)CC1 [Compound 398, 2-[2-(4-cyclobutylpiperazin-1-yl)-2-oxoethyl]-6-phenyl-1,2,3,4-tetrahydroisoquinoline]
O=C(CN1CCc2nc(-c3ccccc3Oc3ccccc3)sc2C1)N1CCN(C2CCC2)CC1 [Compound 345, 5-[2-(4-cyclobutylpiperazin-1-yl)-2-oxoethyl]-2-(2-phenoxyphenyl)-4,5,6,7-tetrahydro[1,3] thiazolo[5,4-c]pyridine]
CCc1cccc(-c2ccc3c(c2)CCN(CC(=O)N2CCN(C(C)C)CC2)C3)c1 [Compound 470, 6-(3-ethylphenyl)-2-[2-(4-isopropylpiperazin-1-yl)-2-oxoethyl]-1,2,3,4-tetrahydroisoquinoline]
O=C(CN1CCc2cc(-c3ccccc3F)ccc2C1)N1CCN(C2CCC2)CC1 [Compound 414, 2-[2-(4-cyclobutylpiperazin-1-yl)-2-oxoethyl]-6-(2-fluorophenyl)-1,2,3,4-tetrahydroisoquinoline]
COc1ccc(F)cc1-c1nc2c(s1)CN(CC(=O)N1CCN(C3CCC3)CC1)CC2 [Compound 343, 5-[2-(4-cyclobutylpiperazin-1-yl)-2-oxoethyl]-2-(5-fluoro-2-methoxyphenyl)-4,5,6,7-tetrahydro[1,3]thiazolo [5,4-c]pyridine]
O=C(CN1CCc2cc(-c3ccc(OC(F)(F)F)cc3)ccc2C1)N1CCN(C2CCCCC2)CC1 [Compound 480, 2-[2-(4-cyclohexylpiperazin-1-yl)-2-oxoethyl]-6-[4-(trifluoromethoxy)phenyl]-1,2,3,4-tetrahydroisoquinoline]
CCc1ccc(-c2ccc3c(c2)CCN(CC(=O)N2CCN(C4CCCC4)CC2)C3)cc1 [Compound 460, 2-[2-(4-cyclopentylpiperazin-1-yl)-2-oxoethyl]-6-(4-ethylphenyl)-1,2,3,4-tetrahydroisoquinoline]
O=C(CN1CCc2cc(-c3cccc(F)c3)ccc2C1)N1CCN(C2CCC2)CC1 [Compound 410, 2-[2-(4-cyclobutylpiperazin-1-yl)-2-oxoethyl]-6-(3-fluorophenyl)-1,2,3,4-tetrahydroisoquinoline]

same assay, conditions: Table II "Ki", symbol †, 4 μM of the compound, 1 μM histamine, read-out: percent inhibition of the signal obtained with 1 μM histamine

Inhibition at 4 µM, ≥ 90%:
O=C(CN1CCc2cc(-c3cncnc3)ccc2C1)N1CCN(C2CCOCC2)CC1 [Compound 621, 2-{2-oxo-2-[4-(tetrahydro-2H-pyran-4-yl)piperazin-1-yl]ethyl}-6-pyrimidin-5-yl-1,2,3,4-tetrahydroisoquinoline]
CCOc1ccccc1-c1ccc2c(c1)CCN(CC(=O)N1CCN(C3CCC3)CC1)C2 [Compound 566, 2-[2-(4-cyclobutylpiperazin-1-yl)-2-oxoethyl]-6-(2-ethoxyphenyl)-1,2,3,4-tetrahydroisoquinoline]
O=C(CN1CCc2cc(-c3ccc(Cl)c(Cl)c3)ccc2C1)N1CCN(C2CCCC2)CC1 [Compound 595, 2-[2-(4-cyclopentylpiperazin-1-yl)-2-oxoethyl]-6-(3,4-dichlorophenyl)-1,2,3,4-tetrahydroisoquinoline]
COc1ccc(-c2ccc3c(c2)CCN(CC(=O)N2CCN(C(C)C)CC2)C3)cc1 [Compound 523, 2-[2-(4-isopropylpiperazin-1-yl)-2-oxoethyl]-6-(4-methoxyphenyl)-1,2,3,4-tetrahydroisoquinoline]
COc1ccc(-c2ccc3c(c2)CCN(CC(=O)N2CCN(C4CCCC4)CC2)C3)c(OC)c1 [Compound 564, 2-[2-(4-cyclopentylpiperazin-1-yl)-2-oxoethyl]-6-(2,4-dimethoxyphenyl)-1,2,3,4-tetrahydroisoquinoline]
O=C(CN1CCc2cc(-c3cccc(F)c3F)ccc2C1)N1CCN(C2CCCCC2)CC1 [Compound 601, 2-[2-(4-cyclohexylpiperazin-1-yl)-2-oxoethyl]-6-(2,3-difluorophenyl)-1,2,3,4-tetrahydroisoquinoline]
O=C(CN1CCc2cc(-c3cc(F)ccc3F)ccc2C1)N1CCN(C2CCCCC2)CC1 [Compound 584, 2-[2-(4-cyclohexylpiperazin-1-yl)-2-oxoethyl]-6-(2,5-difluorophenyl)-1,2,3,4-tetrahydroisoquinoline]
CN(C)c1cccc(-c2ccc3c(c2)CCN(CC(=O)N2CCN(C4CCCCC4)CC2)C3)c1 [Compound 538, 3-{2-[2-(4-cyclohexylpiperazin-1-yl)-2-oxoethyl]-1,2,3,4-tetrahydroisoquinolin-6-yl}-N,N-dimethylaniline]
COc1ccc(Cl)cc1-c1ccc2c(c1)CCN(CC(=O)N1CCN(C3CCC3)CC1)C2 [Compound 557, 6-(5-chloro-2-methoxyphenyl)-2-[2-(4-cyclobutylpiperazin-1-yl)-2-oxoethyl]-1,2,3,4-tetrahydroisoquinoline]
COc1ccc(-c2ccc3c(c2)CCN(CC(=O)N2CCN(C4CCCCC4)CC2)C3)c(C)c1 [Compound 550, 2-[2-(4-cyclohexylpiperazin-1-yl)-2-oxoethyl]-6-(4-methoxy-2-methylphenyl)-1,2,3,4-tetrahydroisoquinoline]
COc1cc(-c2ccc3c(c2)CCN(CC(=O)N2CCN(C(C)C)CC2)C3)cc(OC)c1OC [Compound 519, 2-[2-(4-isopropylpiperazin-1-yl)-2-oxoethyl]-6-(3,4,5-trimethoxyphenyl)-1,2,3,4-tetrahydroisoquinoline]
CSc1cccc(-c2ccc3c(c2)CCN(CC(=O)N2CCN(C(C)C)CC2)C3)c1 [Compound 497, 2-[2-(4-isopropylpiperazin-1-yl)-2-oxoethyl]-6-[3-(methylthio)phenyl]-1,2,3,4-tetrahydroisoquinoline]
O=C(CN1CCc2cc(-c3ccccc3Oc3ccccc3)ccc2C1)N1CCN(C2CCCCC2)CC1 [Compound 577, 2-[2-(4-cyclohexylpiperazin-1-yl)-2-oxoethyl]-6-(2-phenoxyphenyl)-1,2,3,4-tetrahydroisoquinoline]
O=C(CN1CCc2cc(-c3cccc(OC(F)(F)F)c3)ccc2C1)N1CCN(C2CCCC2)CC1 [Compound 491, 2-[2-(4-cyclopentylpiperazin-1-yl)-2-oxoethyl]-6-[3-(trifluoromethoxy)phenyl]-1,2,3,4-tetrahydroisoquinoline]
CN(C)c1cccc(-c2ccc3c(c2)CCN(CC(=O)N2CCN(C4CCCC4)CC2)C3)c1 [Compound 537, 3-{2-[2-(4-cyclopentylpiperazin-1-yl)-2-oxoethyl]-1,2,3,4-tetrahydroisoquinolin-6-yl}-N,N-dimethylaniline]
CC(C)CN1CCN(C(=O)CN2CCc3cc(-c4cncnc4)ccc3C2)CC1 [Compound 605, 2-[2-(4-isobutylpiperazin-1-yl)-2-oxoethyl]-6-pyrimidin-5-yl-1,2,3,4-tetrahydroisoquinoline]
O=C(CN1CCc2cc(-c3ccc(F)cc3F)ccc2C1)N1CCN(C2CCC2)CC1 [Compound 586, 2-[2-(4-cyclobutylpiperazin-1-yl)-2-oxoethyl]-6-(2,4-difluorophenyl)-1,2,3,4-tetrahydroisoquinoline]
COc1cc(-c2ccc3c(c2)CCN(CC(=O)N2CCN(C4CCCCC4)CC2)C3)cc(OC)c1OC [Compound 518, 2-[2-(4-cyclohexylpiperazin-1-yl)-2-oxoethyl]-6-(3,4,5-trimethoxyphenyl)-1,2,3,4-tetrahydroisoquinoline]
O=C(CN1CCc2cc(-c3ccc(F)c(Cl)c3)ccc2C1)N1CCN(C2CCCCC2)CC1 [Compound 581, 6-(3-chloro-4-fluorophenyl)-2-[2-(4-cyclohexylpiperazin-1-yl)-2-oxoethyl]-1,2,3,4-tetrahydroisoquinoline]
COc1ccccc1-c1ccc2c(c1)CCN(CC(=O)N1CCN(C3CCCCC3)CC1)C2 [Compound 553, 2-[2-(4-cyclohexylpiperazin-1-yl)-2-oxoethyl]-6-(2-methoxyphenyl)-1,2,3,4-tetrahydroisoquinoline]
